# Results: PMC11885506, “Evaluation of a non-animal toolbox informed by adverse outcome pathways for human inhalation safety” (Frontiers in Toxicology, 2025)
# Entries after “also recorded” stand apart in the source; their conditions may differ. Like-named read-outs stand apart in the source and are kept apart here.
# Assays:
# MucilAir™-HF tissues [1] = experiment: Mucin-5AC (Muc5AC) immunohistochemistry, goblet cells, MucilAir-HF model; type: cell-based, human; settings: for % of Muc5AC area: average ± standard deviation
# Method: (§1) Tissues were handled as recommended by manufacturer’s instruction.
# The presence of goblet cells was assessed through immunohistochemistry analysis for mucin-5AC protein (Muc5AC) detection. IL-13 and cytomix were used as positive controls (see item 2.5.2 for additional details). On last day of experiment (day 12), cultures (n = 3 tissues/group) were rinsed in PBS and fixed by immersion in 4% formaldehyde for 20 min. Fixed tissues were embedded into paraffin, sectioned, and processed for staining on paraffin sections. The immunostaining of the sections was performed with the Benchmark automated platform (Ventana-Roche, Hoffmann-La Roche Ltd, Basel, Switzerland) and the Autostainer Link 48 (Agilent, Santa Clara, CA. United States) with the detection kit Ultraview DAB (DAB chromogeny, Hoffmann-La Roche Ltd). Sections were pre-treated using heat mediated antigen retrieval with sodium citrate buffer, pH 6, for 20 min. The section was then incubated with recombinant anti-mucin 5AC antibody (ab3649, Abcam) for 1 h at room temperature, followed by biotinylated secondary antibody (Dako) and HRP detection (HRP conjugated ABC system, Vector Laboratories), according to manufacturer’s instruction. The section was then counterstained with hematoxylin (Sigma-Aldrich) and mounted with DPX, a synthetic non-aqueous mounting medium for microscopy. Digital images of the slides were then acquired, and quantitative image analysis performed using Image Pro Plus 6.2 (Media Cybernetics) to quantify the goblet cells on a section. The whole images of stained sections were scanned, and an average 15 images/section were analysed. The results are the ratio between the mucin 5AC stained area and the total surface area of the epithelium on the section.
# [2] = system: monocyte-derived macrophages (MDMs); settings: 20 µM; ref Zeng et al., 2021; cited from earlier work
# [3] = system: RLE-6TN rat lung epithelial cells; settings: 0.5 µM; ref Jiao et al., 2017; cited from earlier work
# [4] = system: Beas2B, HFL-1 and H292 cells; design: method as in Gerloff et al., 2017; settings: 10 ng/mL for 24h; ref Gerloff et al., 2017; cited from earlier work
# MucilAir™-HF tissues [5] = experiment: Cytokine and chemokine measurements (Luminex), MucilAir-HF model; type: cell-based, human; settings: MucilAir-HF
# Method: as §1
# Basolateral medium samples of the tissue cultures were collected and stored at −80°C until analysis. The following cytokines/chemokines were quantified using customized Human Luminex® Discovery Assay kits (R&D Systems): chemokine (C-C motif) ligand (CCL) 2, CCL7, CCL26, C-X-C motif chemokine ligand (CXCL) 10, CXCL11, intercellular adhesion molecule-1 (ICAM-1), IL-1α, IL-6, IL-8, matrix metalloproteinase (MMP)-1, MMP-2, MMP-3, MMP-7, MMP-9, osteopontin, interferon (IFN)-γ, IL-1 receptor antagonist (IL-1Ra), urokinase-type plasminogen activator receptor (uPAR), tumour necrosis factor (TNF)-α, urokinase (uPA), serpin E1, tissue inhibitor of metalloproteinase 1 (TIMP-1), and TGF-β1. Samples were measured in technical triplicates according to the manufacturer’s recommendation using a Luminex Bio-Plex® 200 RUO System ([…]).
# [6] = system: human airway smooth muscle cells; design: method as in McKay et al., 2000; settings: 1-500 U/mL for 24h; ref McKay et al., 2000; cited from earlier work
# [7] = system: HBE16 airway epithelial cells; settings: 20 μM for 12h; ref Li et al., 2010; cited from earlier work
# [8] = system: EpiAirway-100 human upper respiratory tract epithelium model; settings: 25-125 mM for 24h; ref Balharry et al., 2008; cited from earlier work
# [9] = system: A549 human lung adenocarcinoma cell line; settings: 0.1-5 µM for 3h; ref Guo et al., 2012; cited from earlier work
# [10] = system: cultured alveolar macrophages and epithelial cells; design: method as in JOUNEAU et al., 2011; settings: 10 µg/mL for 48h, bacteria strain not specified; ref JOUNEAU et al., 2011; cited from earlier work
# EpiAlveolar™ tissues = experiment: Histology and immunohistochemistry, EpiAlveolar model, Laboratory 2; settings: Laboratory 2, 12-day period
# Method: To evaluate the quality of EpiAlveolar™ tissues over the 12-day experimental period, histological and immunohistochemistry assessments for detection of pan-cytokeratin, vimentin, aquaporin 5, pro-surfactant C, CD68, caspase-3, and/or αSMA were performed by Laboratories 1 and 2.
# Tissues were kept in 10% phosphate buffered formalin at 4°C for up to 48 h. Samples were then fixed in 70% ethanol and two strips of membrane were trimmed from each sample, processed, and paraffin-embedded to be cut at 5 µm thick sections and mounted to glass slides. The slides were then dewaxed in xylene, hydrated using graded industrial methylated spirit (70-100%) and stained with H&E for light microscope analysis.
# For immunohistochemistry analysis, tissue sections-containing microscope slides were obtained and processed using a Discovery Ultra Staining System (Roche), according to manufacturer’s instructions, except for anti-CD68 staining that was manually performed. The slides were incubated at 60°C for 8 min and then deparaffinized at 69°C for 24 min. After that, slides were incubated with inhibitor CM or peroxidase blocking solution (for anti-CD68 staining) for 8 min at room temperature. The slides were then incubated at room temperature with the following primary monoclonal antibodies, following manufacturer’s instructions: anti-α smooth muscle actin (αSMA) at 1:500 (Leica Microsystems Ltd), anti-CD68 at 1:3000 for macrophages (11192-T24, Sino Biological), anti-pro-surfactant C protein at 1:1000 (AB3786, Sigma-Aldrich), anti-caspase-3 at 1:10000 (AB4051, Abcam), anti-aquaporin 5 (31661, Invitrogen), anti-pan-cytokeratin for epithelial cells (760-2595, Roche), and anti-vimentin for mesenchymal cells (790-2917, Roche). […]
# A board-certified pathologist evaluated the changes (epithelial thinning, separation/detachment areas, necrosis, collagen, and presence of apoptotic cells, myofibroblasts, and type II pneumocytes) using a semi-quantitative scoring system (Table 2).
# [11] = system: primary human bronchial epithelial cells; design: method as in Wu et al., 2010; settings: 1 μg/mL for 24h, bacteria strain not specified; ref Wu et al., 2010; cited from earlier work
# [12] = system: cystic fibrosis phenotype cells; design: method as in Perez et al., 2007; settings: 20 µM for 3-5 days; ref Perez et al., 2007; cited from earlier work
# [13] = system: airway epithelial cell lines; design: method as in Nilsson et al., 2010; settings: 40 µM for 60 min, corrected and normal cell lines; ref Nilsson et al., 2010; cited from earlier work
# [14] = system: primary human nasal epithelial cells; design: method as in Uchenna Agu et al., 1999; settings: ref Uchenna Agu et al., 1999, cited from earlier work
# MucilAir™-HF tissues [15] = experiment: Cilia beating frequency (CBF) analysis, MucilAir-HF model
# Method: The MucilAir™-HF system (EP11MD) and ready-to-use chemically-defined, serum-free culture medium (EP04AM) were obtained from Epithelix Sàrl (Geneva, Switzerland). Tissues were handled as recommended by manufacturer’s instruction. […] After differentiation for 42 up to 81 days at the air-liquid interface (ALI) under standard culture conditions (37°C ± 1°C in a humidified atmosphere of 5% ± 1% CO2 in air), tissues were washed 3 days before first exposure and each insert was inspected for beating cilia and mucus production. This washing step (one or twice with PBS) were performed to remove accumulated mucus and cell debris to minimize the risk of interference with the toxicity tests. Over 12-day experimental period, washing steps as well as media changes was performed every 2-3 days.
# For toxicity testing performed over a 12-day experimental period, tissues were daily exposed to 3 different concentrations of each test material for 30 min or 6 h (for detailed information on each material see Table 1). […] Tissues were exposed by test materials via nebulization, liquid apical application, or liquid basal application. These differences in the exposure type were due to solubility of the test material, route of exposure (inhaled or systemic), or comparison with previous publications. […]
# [16] = system: NCI-292 and normal human bronchial epithelial cells; design: method as in Deshmukh et al., 2005; settings: ref Deshmukh et al., 2005; cited from earlier work
# [17] = system: human bronchial epithelial cells (BEAS-2B); design: method as in Sthijns et al., 2014; settings: 3-10 µM, 30-min exposure; ref Sthijns et al., 2014; cited from earlier work
# NCI-H292 cells = settings: 0.03 µM for 4 h; ref Deshmukh et al., 2005; cited from earlier work
# [18] = 30 min/day exposure, day 12, High 1 concentration (third of the tested concentrations)
# [19] = 30 min/day exposure, day 12, Low concentration (first of the tested concentrations)
# [20] = 30 min/day exposure, day 12, Medium concentration (second of the tested concentrations)
# [21] = 6 h/day exposure, day 12, single tested concentration
molecule,measurement,setting,value
"C[S+]([O-])CCCCN=C=S (stereo not drawn) [Sulforaphane, R,S-Sulforaphane]",% of Muc5AC area,MucilAir™-HF tissues [1]; [18],5.04 ± 0.71%
same,% of Muc5AC area,MucilAir™-HF tissues [1]; [19],3.74 ± 0.71%
same,% of Muc5AC area,MucilAir™-HF tissues [1]; [20],9.38 ± 0.80%
same,% of Muc5AC area,MucilAir™-HF tissues [1]; [21],2.55 ± 0.62%
same,Anti-inflammatory activity,[2],anti-inflammatory activity by suppressing the expression of Toll-like receptors (TLR2 and TLR4)
same,Protection from cigarette smoke extract-induced oxidative damage,[3],protect from cigarette smoke extract-induced oxidative damage
Recombinant human TNF-α (carrier-free),% of Muc5AC area,MucilAir™-HF tissues [1]; [18],5.21 ± 3.28%
same,% of Muc5AC area,MucilAir™-HF tissues [1]; [19],8.18 ± 1.54%
same,% of Muc5AC area,MucilAir™-HF tissues [1]; [20],9.15 ± 6.07%
same,IL-8 protein levels,[4],increased IL-8 protein levels
same,Cytokines/chemokines modulated (in words),MucilAir™-HF tissues [5]; 30 min/day exposure,upregulation of CCL2 and osteopontin
same,IL-6 production protein and mRNA transcript levels,[6],significant increase of IL-6 production protein and mRNA transcript levels
CN1CCC[C@H]1c1cccnc1 [Nicotine],% of Muc5AC area,MucilAir™-HF tissues [1]; [18],5.94 ± 1.90%
same,% of Muc5AC area,MucilAir™-HF tissues [1]; [19],0.89 ± 0.62%
same,% of Muc5AC area,MucilAir™-HF tissues [1]; [20],3.91 ±0.79%
same,"TNF-α, IL-8, IL-6 and MUC5AC supernatant protein and mRNA levels",[7],"did not trigger changes in TNF-α, IL-8, IL-6 and MUC5AC supernatant protein and mRNA levels"
same,TEER values (integrity of the epithelial membrane),[8],biphasic response with a large and significant increase of TEER values at low concentrations followed by a steady decrease at higher concentrations
same,Cytotoxicity (LDH release),[9],did not trigger cytotoxicity
Lipopolysaccharide from Pseudomonas aeruginosa 10 [LPS],MMP-9 supernatant levels and mRNA transcripts,[10],significant increase in MMP-9 supernatant levels and mRNA transcripts
same,% of Muc5AC area,MucilAir™-HF tissues [1]; [18],4.28 ± 0.76%
same,% of Muc5AC area,MucilAir™-HF tissues [1]; [19],2.87 ± 0.77%
same,% of Muc5AC area,MucilAir™-HF tissues [1]; [20],4.30 ± 0.90%
same,% of Muc5AC area,MucilAir™-HF tissues [1]; [21],1.58 ± 0.40%
same,Cytokines/chemokines modulated (in words),MucilAir™-HF tissues [5]; 30 min/day exposure,did not promote modulation of the different cytokines/chemokines
same,Cytokines/chemokines modulated (in words),MucilAir™-HF tissues [5]; 6 h/day exposure,"increased levels of proteins involved in the inflammatory response (e.g., IL-6, IL-8, and TNF-α) and degradation of extracellular matrix/fibrosis (e.g., MMP-3 and uPAR)"
same,Histological changes compared to vehicle and control groups (in words),EpiAlveolar™ tissues,changes were not observed
same,IL-6 and IL-8 protein and mRNA transcripts levels,[11],significant increase of IL-6 and IL-8 protein and mRNA transcripts levels
O=C(O)c1ccc(/C=C2\SC(=S)N(c3cccc(C(F)(F)F)c3)C2=O)cc1 [CFTRinh-172],"GM-CSF, IL-6 and/or IL-8 secretion levels",[12],"no changes in granulocyte/macrophage colony-stimulating factor, IL-6 and/or IL-8 secretion levels"
same,Changes in Muc5AC protein expression (in words),MucilAir™-HF tissues [1],not able to promote any changes; also recorded: did not induce expected increase in mucin secretion or Muc5AC protein expression
same,% of Muc5AC area,MucilAir™-HF tissues [1]; [18],6.93 ± 0.51%
same,% of Muc5AC area,MucilAir™-HF tissues [1]; [19],7.15 ± 1.06%
same,% of Muc5AC area,MucilAir™-HF tissues [1]; [20],11.01 ± 0.81%
same,TEER values,[13],time-dependent increase in TEER values
"Cc1cc(O)ccc1Cl [Chlorocresol, 4-Chloro-3-methylphenol]",% of Muc5AC area,MucilAir™-HF tissues [1]; [18],6.95 ± 0.30%
same,% of Muc5AC area,MucilAir™-HF tissues [1]; [19],14.47 ± 0.87%
same,% of Muc5AC area,MucilAir™-HF tissues [1]; [20],8.85 ± 1.77%
same,CBF,[14]; 0.005% w/ v for 1-20 min,reversible cilio-inhibitory effects by significantly decreasing CBF
same,CBF,[14]; 0.1% w/v,instantaneous and irreversible ciliostasis
same,"Tissue functionality (CBF, MCC, mucin secretion) change (in words)",MucilAir™-HF tissues [15],not able to induce changes in tissue functionality (e.g. reduced CBF)
C=CC=O [Acrolein],% of Muc5AC area,MucilAir™-HF tissues [1]; [18],5.21 ± 2.16%
same,% of Muc5AC area,MucilAir™-HF tissues [1]; [19],3.66 ± 1.21%
same,% of Muc5AC area,MucilAir™-HF tissues [1]; [20],7.40 ± 1.45%
same,MMP9 mRNA expression,[16],increase of MMP9 mRNA expression
same,Cytotoxicity (LDH leakage),[17],concentration-dependent cytotoxicity through LDH leakage increase
same,MUC5AC mRNA expression,NCI-H292 cells,MUC5AC mRNA expression increase
